The data set has as its system 2.2.15 cells. The data set is described as follows: neutral red dye uptake cytotoxicity. Particulars: 9 days treatment, read-out: 50% Cell Death CC50. The class given is cell-based. The procedure:
Further, the antiviral effect of any compound must be measured against its toxicity. Cytotoxicity is measured by the neutral red uptake method using the same cells used for antiviral activity.
2b. Compounds were prepared for toxicity treatment as follows: For each compound, a total of 4 concentrations were examined. This required 9 sets of 4 sterile, 1.1 ml minitubes (36 tubes per compound). Into the first tube of each set, sufficient compound was aliquoted to make up 465 μl of the highest test concentration. The other tubes were left empty. The tubes were covered with the rack lids, and stored at −20° C. or at an appropriate temperature. Tubes for the last day of treatment for toxicity testing contain the same amount of compound as used the previous days (not 3xas for the antiviral assays).
3b. The cytotoxicity of test compounds was analyzed in a 3.3-fold dilution series as follows. […] (155 μl×3) of RP2 were added to the first tube (containing the aliquot of compound) and 310 μL (155 μl×2) RP2 to each of the 3 remaining tubes. 150 μl of test compound-containing medium were serially transferred from the first tube to the other 3 tubes.
5. A single plate was used for the toxicity treatments for each test compound (up to 7 compounds per plates since the top row were reserved for untreated cells on every toxicity plate). To initiate the treatments, the culture medium was removed, and 100 μl of each dilution of every compound were added to each of 3 wells using a configuration similar to that shown above for the antiviral treatments. The untreated cells received 100 μl RP2 per well. Treatment was repeated daily for 9 days.
The antiviral effect of any compound was evaluated relative to its toxicity. Cells were seeded and treated following the guidelines above, after which a neutral red dye uptake assay was performed to assess toxicity as described below. Other assays of cytotoxicity (e.g., MTT) can be substituted for the procedure described below. Note that this procedure assesses toxicity under culture and treatment conditions which are identical to those used for the antiviral analyses, thereby permitting a determination as to whether the reduction in virus production due to a specific antiviral effect or due to a cytotoxic effect on the host cell. Since the cultures, by necessity, are at confluence, the cytotoxic effects of the test compounds will probably be reduced relative to the cytotoxic effects that would be expected for actively dividing cells.
1. Cultures were treated with test compounds on the designated toxicity plates as described above.
2. The culture medium was carefully removed 24 hours following the 9th day of treatment. The monolayer was fully removed in the top left three wells (row A, col. 1-3). These wells were used as “blanks” for the plate reader.
3. 100 μl DPBS (containing 0.01% neutral red dye) were added to each well, including the empty wells, and Incubated in the tissue culture incubator for 30 minutes.
4. The dye was removed carefully and gently, using a multichannel pipetman since the monolayers can become fragile after incubation with neutral red dye. 200 μl DPBS were added to all the wells taking care not to displace the monolayers. The DPBS was removed and 100 μl 50% EtOH/1% glacial acetic acid (in H2O) were added to each well. The plates were mixed for 15 minutes on an orbital platform shaker (120-150 RPM) to allow for full extraction of the dye from the cells.
5. Optical absorbance at 510 nm was read in an ELISA type plate reader, using the 3 empty wells to set the background. An average absorbance value was calculated for the 9 untreated cultures on a plate, and the absorbance of dye for the treated cultures on the same plate was expressed as a percentage of that value. This procedure was repeated for each individual plate. […]

CC50 data for 29 compounds are collected here from patent US6335339B1, “Triazine antiviral compounds” (Scriptgen Pharmaceuticals, Inc., priority 1998, dated 2002).

Each structure is given as a SMILES string.

In general, CC50 refers to the concentration that lowers cell viability or growth by half.

As for `C(=Cc1ccccc1)C=NNc1nc(Nc2ccccc2)nc(Nc2ccccc2)n1` [Compound 125], the CC50 turned out to be 265 µM. Under `CCCCN(CCCC)c1nc(NN=Cc2ccc(Cl)cc2)nc(Nc2ccc([N+](=O)[O-])cc2)n1` [Compound 16] stands 304 µM.

Turning to `CC(C=NNc1nc(Nc2ccc([N+](=O)[O-])cc2)nc(Nc2ccc(C)c(C)c2)n1)=Cc1ccccc1` [Compound 19], the CC50 is more than 300 µM.

As to `Oc1c(Br)cc(Cl)cc1/C=N/Nc1nc(Nc2cccc(C(F)(F)F)c2)nc(N2CCOCC2)n1` [Compound 34], the CC50 stood at 41 µM. For `Cc1ccc(Nc2nc(NCc3ccccc3)nc(NN=Cc3cc(Br)cc(Br)c3O)n2)cc1C` [Compound 219], the CC50 was more than 300 µM.

As for `CCN(CC)c1nc(NN=Cc2ccc(Cl)c([N+](=O)[O-])c2)nc(Nc2cc(C)ccc2C)n1` [Compound 214], the cytotoxic concentration (CC50) was more than 300 µM. Consider `Cc1ccc(Nc2nc(NN=Cc3ccc(I)cc3)nc(Nc3ccccc3)n2)c(C)c1` [Compound 113], for which the cytotoxic concentration (CC50) is more than 300 µM.

Consider `Oc1ccc(I)cc1C=NNc1nc(NCc2ccccc2)nc(Nc2ccccc2)n1` [Compound 33], for which the CC50 was determined as 50 µM. With `CCN(CC)c1nc(NN=Cc2c(O)ccc3ccccc23)nc(Nc2ccccc2)n1` [Compound 171] the figure was 174 µM. Regarding `CC(=NNc1nc(NCc2ccccc2)nc(Nc2ccccc2)n1)c1ccc([N+](=O)[O-])cc1` [Compound 182], the CC50 is more than 300 µM. With `Cc1ccc(Nc2nc(NCc3cc(F)ccc3F)nc(Nc3ccc([N+](=O)[O-])cc3)n2)cc1C` [Compound 248] the figure was 135 µM; with `O=[N+]([O-])c1ccc(Nc2nc(NCc3ccccc3)nc(NN=Cc3ccccc3)n2)cc1` [Compound 24], 75 µM; with `CNc1nc(NN=Cc2cc(Cl)ccc2O)nc(Nc2ccccc2)n1` [Compound 245], 137 µM. For `Oc1ccccc1C=NNc1nc(Nc2ccccc2)nc(N2CCCCC2)n1` [Compound 169], the CC50 is more than 300 µM. For the compound `Cc1ccc(Nc2nc(NN=Cc3cccc([N+](=O)[O-])c3)nc(Nc3ccccc3)n2)c(C)c1` [Compound 229], the CC50 worked out at 237 µM.

As to `COc1ccc(Nc2nc(NCc3cccc([N+](=O)[O-])c3)nc(NCc3cc(F)ccc3F)n2)cc1OC` [Compound 225], the CC50 worked out at 281 µM.

As for `COc1cccc(C=NNc2nc(Nc3ccccc3)nc(N3CCCC3)n2)c1O` [Compound 170], the CC50 turned out to be 499 µM.

Turning to `COc1ccc(Nc2nc(NN=Cc3ccc(Cl)cc3)nc(Nc3ccccc3)n2)cc1` [Compound 22], the CC50 was determined as 47 µM. With `COc1ccc(Nc2nc(NN=Cc3ccc(O)cc3O)nc(Nc3ccccc3)n2)cc1` [Compound 158] the figure was 112 µM.

`COc1ccc(C=NNc2nc(NCc3ccccc3)nc(Nc3ccccc3)n2)cc1` [Compound 165]: the CC50 was more than 300 µM.

Regarding `COc1ccc(Nc2nc(NN=Cc3ccc(O)cc3O)nc(N3CCOCC3)n2)cc1` [Compound 164], the half-maximal cytotoxic concentration (CC50) worked out at 201 µM. Under `Cc1ccc(Nc2nc(NN=Cc3ccccc3O)nc(Nc3ccc([N+](=O)[O-])cc3)n2)cc1C` [Compound 12] stands 77 µM; under `C(=Cc1ccccc1)C=NNc1nc(Nc2ccccc2)nc(N2CCCC2)n1` [Compound 213], more than 300 µM.

Take `O=[N+]([O-])c1ccc(Nc2nc(NN=Cc3ccc(Br)cc3)nc(N3CCCCCC3)n2)cc1` [Compound 117]: the CC50 was more than 300 µM.

On to `Cc1ccccc1Nc1nc(NN=Cc2ccc(I)cc2)nc(Nc2ccc([N+](=O)[O-])cc2)n1` [Compound 10], for which the CC50 was more than 300 µM. Regarding `COc1c(C=NNc2nc(Nc3ccccc3)nc(Nc3ccccc3)n2)ccc(Br)c1O` [Compound 168], the CC50 is more than 300 µM.

`Cc1ccc(Nc2nc(NNC(=O)c3ccccc3O)nc(Oc3ccc([N+](=O)[O-])cc3)n2)cc1C` [Compound 250]: the CC50 was 123 µM. As for `Oc1ccc(Br)cc1C=NNc1nc(Nc2cccc(Br)c2)nc(N2CCOCC2)n1` [Compound 232], the CC50 came to 190 µM. With `COc1ccc(Nc2nc(NN=Cc3ccc(OC)cc3OC)nc(Nc3ccccc3)n2)cc1` [Compound 20] the figure was 7.1 µM.
